Measured values from patent US20200338195A1, “PHARMACEUTICAL COMPOSITIONS COMPRISING 0.25 MG DOSE OF SYNTHETIC HUMAN PEPTIDES FOR TREATING SYSTEMIC LUPUS ERYTHEMATOSUS” (priority 2016, published 2020).
Entries after “also recorded” stand apart in the source; their conditions may differ. Where two headings read alike, the source gives them in different places.

Assays:
[1] = system: SLE patients; settings: cited from earlier work; for incidence of adverse events (AEs), % of the subjects: placebo 75%
[2] = system: subjects with active SLE; experiment: Low dose Edratide therapy, 26-week phase 2 dose-ranging study (Example 2); format: in vivo, human
Excerpt: The study will test about 200 study subjects, in about 50 centres. The study population will include seropositive SLE patients (presence of anti-dsDNA antibodies by FARRzyme immunoassay, titer ≥30 IU, and/or the Crithidia luciliae immunofluorescence test, and/or antinuclear antibodies (ANA) ≥1:160 or 1:80 in which case the Adjudication Committee would review the subject's data at baseline.
The total duration of the study is expected to be 34 weeks: • Screening Phase: <30 days (4 weeks) • Phase 2 double-blind treatment phase: 26 weeks (6 months) • Follow-up phase for safety: 4 weeks
Glucocorticoid dosing: It is highly recommended to initiate tapering from the baseline dose of prednisone/prednisone equivalent on or after week 4, as clinically indicated from doses ≥15 mg/day to ≥7.5 mg/day; tapering could continue until week 18. No changes in dose of prednisone/prednisone equivalent doses are allowed during weeks 19-26, the last 8 weeks of the trial. No specific tapering regimen is required, but to be determined as clinically indicated by the investigator.
Active SLE patients will be screened for up to 30 days prior to the baseline visit (visit 2). Each subject will undergo screening evaluations.
The subjects must meet the following inclusion criteria: • 1.Subjects diagnosed with SLE must have a documented medical history to meet Systemic Lupus International […] (SLICC) classification criteria for SLE, or have accumulated 4 classification criteria (1997 revised) of the American College of Rheumatology (ACR) for SLE prior to first dose. • 2. Subjects with active SLE must have: • a. At least one BILAG-A and/or two BILAG-B's, and • b. SLEDAI score of 6 or higher, excluding serology scores, and be • c. Serologically-positive as defined by 2 positive ANA or anti-dsDNA antibody test results (titer ≥30 IU by FARR radioimmunoassay and/or the Crithidia luciliae immunofluorescence test, and/or ANA 1:160 or 1:80 in which case the adjudication committee would review the subject's data) of which ≥1 test result must be obtained during screening • 3. Subjects must be ≥18 years of age • 4. SLE patients on stable SLE treatment regimen for at least three (3) months • 5. SLE patients on 15 mg of prednisone/prednisone equivalent, which have been stable for at least 14 days • 6. Subjects receiving 2 g/days of Mycophenolate mofetil (MMF) or ≤1440 mg of Myfortic • 7. Women of child-bearing potential must practice a medically acceptable method of contraception. Acceptable methods include: surgical sterilization, IUD, hormonal preparations, or double barrier method (e.g. condom or diaphragm with spermicidal) • 8. Subjects must be willing and able to give written informed consent prior to entering the study. • 9. Subjects must understand the requirements of the study and agree to comply with the study protocol.
The presence of any of the following excludes a subject from study enrollment: • i. Subjects with active Lupus nephritis as defined by a protein to creatinine ratio limit of ≥0.75 and/or active urine sediments defined as hematuria (>10 RBC/HPF) and/or RBC casts. • ii. Subjects with active central nervous system (CNS) Lupus as defined by CNS BILAG-A or BILAG-B. • iii. Subjects with active peripheral nervous system (PNS) Lupus as defined by PNS BILAG-A or BILAG-B. • iv. Subjects receiving >15 mg of glucocorticoid at baseline • v. Subjects having recently received • a. Cyclophosphamide (wash-out period 3 months), • b. Cyclosporine (wash-out period 3 months), • c. Rituximab (wash-out period at least 52 weeks provided that the CD19 count has returned to normal), or • d. Belimumab (wash-out period 6 months) • e. Any investigational drug (wash-out period 5 half-lives of elimination) […]

[3] = system: mice afflicted with spontaneous or experimental SLE; settings: mouse, in vivo; cited from earlier work
[4] = system: SLE patients; experiment: PRELUDE Study, phase 2 placebo-controlled efficacy, tolerability and safety study of three doses of Edratide; settings: for early withdrawal due to AE, % of subjects: placebo 2.3%; for AE incidence: 26 weeks, placebo 79.3%
Method: The total study treatment duration was 26 weeks. Scheduled visits were performed at screening, baseline and at weeks 4, 8, 12, 16, 20, 24, and 26 (termination). […] Non-compliance with the tapering down scheme was not regarded as a protocol violation. During the entire course of the study it was allowed to increase the steroid prednisolone dose to up to 60 mg. Use of intravascular/intramuscular steroid was considered a protocol violation. […] PK assessment of CAPTISOL® for all four treatment groups was conducted following the first dose and Weeks 12 and 26 doses. Disease and drug related immunology parameters were tested at baseline and at several time points thereafter.
The main inclusion criteria of this trial were: • SLEDAI 2K score of 6-12 • Stable concomitant medications (prednisone<40 mg, NSAIDs, antimalarials) for at least 1 month prior to baseline.
The co-primary end-points presented in their hierarchical order below were: • Change from baseline to last observed value (LOV) in SLEDAI 2K score (Landmark Analysis.) • Adjusted Mean SLEDAI 2K (AMS). AMS represents the time weighted average of disease activity as measured by SLEDAI 2K score [area under the curve (AUC) of SLEDAI 2K].
Secondary end-points: • BILAG proportion of responders. BILAG responders were defined as: • a. Non Responder (NR)—same BILAG score in Last Observed Value (LOV) as in baseline in all systems or new A or B in at least one system compared to baseline (other systems may improve or deteriorate). • b. Substantial Responder (SR)—all systems at LOV are either C or D/E providing that at least one system was either A or B at baseline • c. […] Mental component Score. Change from baseline to LOV • SF-36 (QoL) Physical component Score—Change from Baseline to LOV • Time Weighted Average (TWA) on cumulative steroids dose with p.o. administration.
Exploratory end-points: • Primary end-point sensitivity analysis to steroid increase (excluding the observations following steroid increase) • Proportions of Zero SLEDAI Score at LOV • Time to Zero SLEDAI Score • BILAG Total Score—Change from Baseline to LOV
Flares Analysis: • Time to medicinal flare • Time to new BILAG A or at least two new B's • Time to new BILAG A or at least two new B's (excluding persistent activity) • Steroid dose (PO)—Change from baseline to LOV • PGA—Physician's Global Assessment

[5] = system: SLE patients with stable, mild to moderate SLE disease; settings: cited from earlier work
[6] = system: peripheral blood lymphocytes (PBL) of SLE patients; settings: cited from earlier work

H-GYYWSWIRQPPGKGEEWIG-OH [Edratide]
change of total SLEDAI-2K score during the study ([1]; single sc 0.5, 1 or 2.5 mg, any subject except one in the 0.5 mg group (2 to 10 points at Week 4)): No noteworthy change
incidence of adverse events (AEs), % of the subjects ([1]; single sc injection 0.5 mg): 33%
incidence of adverse events (AEs), % of the subjects ([1]; single sc injection 1 mg): 67%
incidence of adverse events (AEs), % of the subjects ([1]; single sc injection 2.5 mg): 80%
global assessment of disease activity based on MCID ([2]; 0.25 mg sc every week): significant improvement
mean Lupus-QOL relative to baseline ([2]; 0.25 mg sc every week): significant improvement
mean time to first confirmed major SLE flare ([2]; 0.25 mg sc every week, Fortin definition): significantly increased
mean time to first confirmed severe SLE flare ([2]; 0.25 mg sc every week, new BILAG A or two new BILAG B): significantly increased
disease parameter/s ([2]; 0.25 mg sc every week, specific sub-populations of SLE subjects): improvements of disease parameter/s; also recorded: improvement of at least one disease parameter
mean glucocorticoid dose relative to baseline ([2]; 0.25 mg sc every week, week 26): significant change
proportion of subjects achieving MCID of one by SLEDAI-2K Responder Index 50 ([2]; 0.25 mg sc every week, week 26): significant proportion
proportion of subjects achieving a response by composite SLE Responder Index (cSRI) ([2]; 0.25 mg sc every week, week 26): significant proportion
proportion of subjects achieving response by the SLE Responder Index ([2]; 0.25 mg sc every week, week 26): significant proportion
proportion of subjects having all organ systems either BILAG C or BILAG D/E ([2]; 0.25 mg sc every week, week 26): significant proportion
proportion of subjects with at least one BILAG A or B organ system at baseline dropping by one score without deterioration to BILAG A or B in any other system ([2]; 0.25 mg sc every week, week 26, primary outcome): significant proportion
reduction of the amount of corticosteroid therapy required to control disease activity of SLE ([2]; weekly 0.25 mg dose): effective in enabling reduction
disease manifestations of mice afflicted with spontaneous or experimental SLE [3]: ameliorate disease manifestations
post hoc analysis on BILAG responders, system improved ([4]; 0.5 mg Edratide): improvement mainly in the cutaneous system
Serious Adverse Events (SAEs), % of subjects ([4]; 0.5 mg Edratide (6 subjects), placebo 10.3%): 7.1%
Serious Adverse Events (SAEs), % of subjects ([4]; 1.0 mg dose group (10 subjects), placebo 10.3%): 11.5%
Serious Adverse Events (SAEs), % of subjects ([4]; 2.5 mg dose group (8 subjects), placebo 10.3%): 9.8%
early withdrawal due to AE, % of subjects ([4]; Edratide 0.5 mg (5 subjects)): 6.0%
deaths during the study ([4]; Edratide 0.5 mg group, most probably septic shock, classified as not related to study drug): One
AE incidence ([4]; Edratide 0.5 mg sc): 82.1%
BILAG substantial responders, % of subjects ([4]; Edratide 0.5 mg, ITT, LOV vs baseline, placebo 22%, p=0.03): 36%
subjects with a medicinal flare ([4]; Edratide 0.5 mg, ITT, post hoc, n=14, placebo 29% (n=25), p=0.039): 17%
medicinal flare, OR vs placebo ([4]; Edratide 0.5 mg, ITT, post hoc, p=0.039): 0.43
BILAG substantial response, odds ratio (OR) vs placebo ([4]; Edratide 0.5 mg, ITT, p=0.03, not significant after multiplicity adjustment): 2.09
change in the SF-36 mental score compared to placebo ([4]; Edratide 0.5 mg, opposite trend for the physical score): slightly better
early withdrawal due to AE, % of subjects ([4]; Edratide 1.0 mg (3 subjects)): 3.4%
AE incidence ([4]; Edratide 1 mg sc): 77%
BILAG substantial responders, OR vs placebo ([4]; Edratide 1 mg, p=0.07 without correction for multiple comparison): 1.85
early withdrawal due to AE, % of subjects ([4]; Edratide 2.5 mg (3 subjects)): 3.7%
AE incidence ([4]; Edratide 2.5 mg sc): 75.6%
safety signal and dose response from the AEs analysis and additional safety data ([4]; Edratide 0.5, 1 and 2.5 mg): no clear dose response and no significant safety signal
early terminations due to AEs vs placebo ([4]; Edratide vs placebo): more often on Edratide than on placebo
cSRI positive responders ([4]; ITT, n=26, placebo 20% (n=17), p=0.058, FIG. 4): 34%
BILAG non-responders, seropositive patients ([4]; anti-DNA>30 IU at baseline, n=11, placebo 68% (n=21), p=0.05): 42%
BILAG substantial responders, seropositive patients ([4]; anti-DNA>30 IU at baseline, placebo 26%, FIG. 2C): 46%
co-primary endpoints (change from baseline to LOV in SLEDAI 2K score; adjusted mean SLEDAI 2K) vs placebo ([4]; any of the active treatment groups (0.5, 1, 2.5 mg)): no differences
SF-36 mental or physical scores, differences between the treatment groups ([4]; change from baseline to LOV): No clinically or statistically significant differences
cumulative change in steroid dose throughout the study, differences between the treatment groups ([4]; mean baseline steroids dose 9-10 mg/day of prednisolone): No clinically or statistically significant differences
BILAG substantial responders, % of subjects ([4]; no steroids at baseline, 0.5 mg Edratide, placebo 13%, p=0.05): 54%
mean reduction from baseline SLEDAI-2K score ([4]; overall, regardless of treatment): about 35%
SAE incidence ([4]; pooled Edratide group, placebo 10.3%): 9.5%
BILAG substantial responders, % of subjects ([4]; prednisolone dose <20 mg at baseline (pooled cohort of 292 subjects), placebo 19%, p=0.007, FIG. 2B): 40%
BILAG substantial response, OR vs placebo ([4]; prednisolone dose <20 mg at baseline, p=0.007): 2.75
subjects with an increase in total SLEDAI-2K score of 0-3 points during the study ([5]; 0.5 mg group): Two
subjects with an increase in total SLEDAI-2K score of 0-3 points during the study ([5]; 2.5 mg group): 2 subjects
subjects reporting AEs during the 8-week follow-up period (off-drug) ([5]; all treatment groups): Approximately 50%
adjusted mean SLEDAI (AMS) score, change from baseline to termination visit ([5]; all treatment groups, decrease = improvement): −0.1 to −1.5 points
mean group total BILAG score during the study ([5]; any treatment group): No trend
overall incidence of AEs between all treatment groups ([5]; sc twice weekly for 4 weeks, 0.5, 1 or 2.5 mg vs placebo): no prominent difference
serious adverse events (SAE) throughout the study ([5]; sc twice weekly for 4 weeks, 0.5, 1 or 2.5 mg): No SAE was reported
severity of injection site reactions ([5]; sc twice weekly for 4 weeks, all treatment groups): mild
proliferative response of PBL of SLE patients to the human anti-DNA 16/6Id mAB [6]: inhibit the proliferative response
